Laboratory results as given in patent US20130338092A1, “COMPOUNDS AND METHODS FOR TARGETING LEUKEMIC STEM CELLS” (The Broad Institute, Inc., priority 2011, published 2013).
Entries after “also recorded” stand apart in the source; their conditions may differ.

Legend:
primary leukemia cells = test: Annexin V apoptosis assay; format: cell-based, murine; details: 22 hours in suspension, compared to DMSO control
Protocol: Compounds were added to a final DMSO concentration of 0.02%. […] The cells were analyzed by flow cytometry on a FacsCanto II (Becton Dickinson).

[1] = tested on: normal primary human CD34+ cells; test: Alamar Blue assay for human progenitor cell toxicity; details: for IC50: Homo sapiens, 168 h, read-out: Normal Progenitor* IC50
Protocol: Normal G-CSF mobilized CD34+ cells (AllCells, LLC, Emeryville, Calif.), normal BM CD34 cells (MSKCC, New York, N.Y.) and cord blood CD34+ cells (New York Blood Center, New York) were previously frozen and thawed out before the proliferation assay was set up in 384-well plates. Briefly, 50 μl of IMDM medium containing 20% FBS (Gemini Bio-Product, West Sacramento, Calif.), 20 ng/ml of recombinant human Kit Ligand (rhKL), 20 ng/ml of rh-Interleukin-3 (rhIL-3), 20 ng/ml of rhG-CSF, 6 units/ml of rhEPO, 10-42-mercaptoethanol, 2 mM glutamine, 50 u/ml penicillin, 50 μg/ml streptomycin, 1,000 viable CD34+ cells in the presence of various doses of Broad compounds (drug-treated group) or 0.1% DMSO (control group) were incubated at 37° C. After 6 days, 5 μl of AlamaBlue (AbD Serotec, Raleigh, N.C.) was added to each well and further incubated overnight. The fluorescence signal was then measured with GeminiXS microplate reader (Molecular Devices, Sunnyvale, Calif.). Effect of small molecules to proliferation of CD34+ cells was reported as Relative fluorescent intensity (Relative Fluorescent Intensity=Fluorescent Intensity (drug-treated)/Fluorescent Intensity (Control).
Finally, experiments were performed to examine whether BRD7116 or lovastatic acid were likely to cause myelosuppression, a type of deleterious toxicity in patients resulting from harm to normal human hematopoietic progenitor cells. This consideration is especially important as conventional therapies currently used in the clinic have myelosuppressive toxicities that are dose-limiting. To this end, a hematopoietic progenitor assay was employed to compare the effects of BRD7116 and lovastatic acid to effects given by such known myelosuppressive compounds. In this assay, normal primary human CD34^+ cord blood cells were plated with cytokines in suspension, treated with compound for 7 days, and then examined for viability relative to DMSO treated controls.

normal murine HSPCs = test: Triple coculture (LSCs and HSPCs on primary MSCs), normal HSPCs; details: for IC50: Mus musculus, read-out: Normal HSPC* IC50
Protocol: (§1) As in the original assay approach, treatment of these triple cocultures began one day after hematopoietic cell plating and was assessed 5 days later.
(§2) An in vitro therapeutic index was determined for each compound, a comparative measure of the potential for anti-LSC efficacy relative to the potential for dose-limiting toxicities to normal HSCs (myeloablation), or to normal progenitors (myelosuppression). Specifically, ratios were created using the IC50s for primary murine HSPCs in triple coculture as the numerator, and the IC50s for primary murine leukemia inhibition in triple coculture as the denominator, toward assessing the potential for HSC harm relative to LSC inhibition.

MLL-AF9 LSC = test: Triple coculture (LSCs and HSPCs on primary MSCs), leukemia cells; format: cell-based, murine; details: for leukemic cells in triple coculture: 200 nM lovastatic acid or 1 μM BRD7116, 5 days; for IC50: Mus musculus, MLL-AF9, murine LSCs in triple coculture with HSPCs on MSCs
Protocol: as §1, §2

[2] = tested on: CD34+ cells from primary human leukemia samples; test: Human CD34+ CAFC assay, leukemia samples; format: cell-based; details: 1.25 μM to 10 μM, 18 hours exposure, read at 5 weeks (2 weeks FLT3-ITD)
Protocol: Samples were centrifuged over Ficoll-Paque PLUS (GE Heathcare) step gradient (2000×g for 30 min in 50 ml tubes) to obtain mononuclear cells and then CD34^+ cells were selected with immunomagnetic beads (MACS Cell Separation, Miltenyi Biotec, Auburn, Calif.), except in one case, NPM1 mutation, which was CD34^− by flow cytometry and mononuclear cells were used. 50,000 cells were placed into 12.5 cm^2 flasks (Becton Dickinson Labware, Franklin Lakes, N.J.) in co-culture with the MS-5 mouse bone marrow-derived stromal cell line (kindly provided by Dr. Itoh, Dept. of Biology, Niigata University, Japan) and DMSO control and the number of final cobblestones was later read. The number of cells needed to form one cobblestone was then placed in triplicate for each sample with each drug at serial drug dilutions from 10 μM to 0.63 μM as well as with DMSO 0.5% for control purposes and incubated overnight with Iscove's modified Dulbecco's medium (IMDM, in house media preparation laboratory)+20% fetal calf serum (FCS, Atlanta Biologicals, Lawrenceville, Ga.) with glutamine (2 mM/ml, in house media preparation laboratory), monothioglycerol (MTG, 10 nM/ml, Sigma Cell Culture, St. Louis Mo.), c-Kit ligand (20 ng/ml, Amgen, Thousand Oaks, Calif.), Flt ligand (20 ng/ml, Imclone, Bridgewater, N.J.), TPO (20 ng/ml, Amgen) and IL-3 (20 ng/ml, Amgen). Cells were then washed to remove the drugs and placed into 96 well cell culture plates (Becton Dickinson) with α-MEM (in house media preparation laboratory)+12.5% FCS+12.5% horse serum (Gemini Bio-products, West Sacramento, Calif.) with glutamine, MTG, hydrocortisone (1 nM/ml, Sigma) and IL-3 in co-culture with MS-5 stromal cells. […] The same procedure was followed with normal CD34+ cells obtained from cord blood.
The cells were treated with compound or DMSO carrier control at four doses (ranging from 1.25 μM to 10 μM) in triplicate for 18 hours, washed thoroughly, then plated onto human stromal MS-5 monolayers (Itoh, K., Tezuka, H., Sakoda, H., Konno, M., Nagata, K., Uchiyama, T., Uchino, H., and Mori, K. J. (1989). Exp Hematol 17, 145-153.) and maintained in coculture with one subsequent half media change. After 5 weeks (2 weeks for the FLT3-ITD sample (Moore, M. A., Dorn, D. C., Schuring a, J. J., Chung, K. Y., and Morrone, G. (2007). Exp Hematol 35, 105-116.)), cobblestone formation was determined, and dose-response curves against the 7 cell types were generated for each compound.

[3] = tested on: human AML cell lines (U937, THP-1, NOMO-1, SKM-1, NB4, and OCI-AML3); test: AML cell line screen (CellTiter-Glo); format: cell-based
Protocol: Nomo-1, THP-1, SKM-1, NB4, and U937 cell lines were grown in RPMI (12-702F, BioWhittaker), 10% FBS (10082-147, Gibco), and 1% Pen-Strep (15140-122, Gibco) and OCI-AML3 was grown in α-MEM (36453, Stem Cell Technologies), 10% FBS (10082-147, Gibco), and 1% Pen-Strep (15140-122, Gibco). 3000 cells were plated in each well in 30 μl in white, 384 well plates (3570, Corning) and 16 hours later 100 nl of the appropriate compound was added to each well. 72 hours later the plates were cooled to room temperature and 30 μl of CellTiterGlo reagent (G7570, Promega) diluted 1:1 in PBS was added to each well and the plates were analyzed using an Envision (Perkin Elmer).
First, a traditional small molecule screen was performed on six human AML cell lines (U937, THP-1, NOMO-1, SKM-1, NB4, and OCI-AML3), two of which (NOMO-1, THP-1) contain the same oncogene (MLL-AF9) used to generate the primary leukemia cells utilized in our coculture system. The cell lines were grown in isolation under standard conditions, treated with the 160 compounds at 8-point dose, and three days later the viability of each well was quantified using CellTiter-Glo reagent. The IC50s from these AML cell line screens were then compared to the IC50s from the coculture screens. […] As discussed, the existence of such differentially-active compounds is consistent with our hypothesis that coculturing can expand the pool of therapeutically promising compounds identified in high throughput format.

For CC1(C)C(C(=O)Nc2ccc(S(=O)(=O)c3ccc(NC(=O)C4C(C)(C)C4(C)C)cc3)cc2)C1(C)C [BRD7116], the “induction of apoptosis (Annexin V)” value (primary leukemia cells) was “mild induction of apoptosis”, the “toxicity to hematopoietic progenitor cells” value [1] was “minimal toxicity” and the IC50 [1] was 10 µM. The IC50 (normal murine HSPCs) was 5000 nM, the “leukemic cells in triple coculture” value (MLL-AF9 LSC) was “selective loss of the leukemia population; also recorded: selectively cleared the dsRed^+ leukemic cells” and the IC50 (MLL-AF9 LSC) was 500 nM. For the same compound, the “leukemia cobblestone inhibition (human CAFC)” value [2] was “leukemia cobblestone inhibition was observed across all six primary leukemia samples”, the “inhibition of AML cell lines at maximal doses” value ([3]; of the positive control) was 50% and the “inhibition of AML cell lines” value ([3]; relative to DMSO control, concentrations greater than 30 μM) was “roughly 50%”.

For CCC(C)C(=O)OC1CC(C)C=C2C=CC(C)C(CCC(O)CC(O)CC(=O)O)C21 (centres unmarked) [Lovastatic acid], the “induction of apoptosis (Annexin V)” value (primary leukemia cells) was “underwent apoptosis”, the “toxicity to hematopoietic progenitor cells” value [1] was “minimal toxicity” and the IC50 [1] was 10 µM. The “normal HSPCs in triple coculture” value (normal murine HSPCs; 200 nM lovastatic acid or 1 μM BRD7116, 5 days) was “continued to display healthy, cobblestoned morphologies”, the IC50 (normal murine HSPCs) was 800 nM and the “leukemic cells in triple coculture” value (MLL-AF9 LSC) was “selectively cleared the dsRed^+ leukemic cells”. The “leukemic cells in triple coculture” value (MLL-AF9 LSC; listed as lovastatin) was “selective loss of the leukemia population”, the IC50 (MLL-AF9 LSC) was 100 nM and the “leukemia cobblestone inhibition (human CAFC)” value [2] was “leukemia cobblestone inhibition was observed across all six primary leukemia samples”. For the same compound, the “activity against AML cell lines” value [3] was “only weak activity” and the IC50 ([3]; Homo sapiens, read-out: IC50 across the AML cell lines) was > 10 µM.
